Measurements reported in patent publication US6995018B1, “Complex formed by N-linked glycoproteins (SIBLINGS)and Factor H” (The United States of America as represented by the …, priority 1999, dated 2006).

Assays:
[1] = system: Murine erythroleukemia (MEL) cells; experiment: Alternate complement mediated cell lysis assay, MEL cells with normal human serum; format: cell-based; conditions: for protection of MEL cells from complement-mediated lysis (cell viability): 10 μg/mL protein 10 min, normal human serum 1:10, 2 h, trypan blue and MTT; for effect of pretreatment on protective effect of rOPN: pretreatment followed by rOPN 10 μg/mL
Description: MEL cells were rinsed three times with GVB-MgEGTA buffer, resuspended in GVB-MgEGTA at a density of 5×10^6 cells/mL, and incubated at 37° C. with different concentrations of normal human serum. After 2 hrs, cells were harvested for trypan blue exclusion assay. The thiazolium blue assay was carried out at identical serum dilutions and cell viability was determined by absorbance at 560 nm. Each data point represents the average of three measurements. The error bars represent the standard deviation of the mean (A). MEL cells in GVB-MgEGTA buffer were incubated with 10 μg/mL of either rBSP or rOPN for 10 minutes at 37° C. Normal human serum was then added at a dilution of 1:10 and the cells were returned to 37° C., incubated for 2 hours and cell viability was determined by trypan blue and thiazolyl blue (MTT) reduction assays (B). Data from 3–7 separate experiments, with treatment replicates in triplicate, was combined to yield mean values. Error bars represent the standard error of the mean. N=number of experiments combined.
MEL cells prepared as in FIG. 8 were treated with normal rBSP (10 μg/mL), rBSP whose RGD sequence had been mutated to KAE ([…]), and either GRGDS (SEQ ID NO: 10) peptide (400 μM) followed by rBSP or an αVβ3 antibody (1:4000) followed by rBSP for 10 minutes prior to the addition of normal human serum. The cells were then incubated for […] after which cell viability determined using the MTT assay (A). A cohort of MEL cells were pretreated with rOPN (10 μg/mL) alone, GRGDS (SEQ ID NO: 10) peptide followed by rOPN, the αVβ3 antibody followed by rOPN, or an anti-CD44 antibody (Chemicon, Co.) followed by rOPN, or hyaluronan (HA) followed by rOPN (B). Cells were then treated with normal human serum and viability assayed as in FIG. 8. […] The data represents the mean and standard error of the mean for three separate experiments. Statistical significance was determined by analysis of variance. Percent cell viability was determined using A560 absorbance values of various conditions and a control where no serum had been added (100% viable). The cross-hatched region represents that range of values observed when normal human serum (1:10) alone was added (maximal cell death).
The first model system employed was a murine erythroleukemia (MEL) cell line which when incubated with normal human serum can be readily assayed for alternate complement pathway (ACP)-mediated cell lysis (Varnet et al., Curr. Opin. Cell Biol., 8(5):724–730, 1996). Cell survival was measured by both trypan blue dye exclusion and by thiazolyl blue (MTT) reduction by living mitochondria. Titration with dilutions of normal human serum and time courses were carried out to define optimal incubation conditions. At 1:10 dilution, human serum totally lysed the MEL cells as measured by both assay systems (FIG. 8A).
Murine erytliroleukemia (MEL) cells (a gift of Dr. Marilyn Farquhar, Univ. CA San Diego.) grown in DMEM containing 10% fetal bovine serum and 4 mM glutamine were rinsed three times with gelatin veronal buffer with Mg2^+ and EGTA (GVB-MgEGTA, Sigma, St. Louis, Mo.). Cells were resuspended in GVB-MgEGTA at a density of 5×10^6 cells/mL and incubated at 37° C. with different concentrations of normal human serum diluted in GVB-MgEGTA. After 2 h, cells were harvested for trypan blue exclusion assay by removing a 50 μL aliquot, incubating for 15 minutes in 0.4% trypan blue, and counting viable cells under an inverted microscope. The thiazolium blue assay was carried out at identical serum dilutions by incubating a 50 μL aliquot of the cell suspension in an equal volume of 1 mg/mL thiazolyl blue (MTT) for 45 min. Cell viability was determined spectrophotometrically by absorbance at 560 nm. Cells in GVB-MgEGTA buffer were pre-incubated with 10 μg of either rBSP, rDMP1, or rOPN in 1 mL for 10 minutes at 37° C. […]

[2] = biological target: T1, purified human complement Factor H (Homo sapiens, UniProt P08603); experiment: Steady state fluorescence titration of Factor H with SIBLINGS proteins; format: binding; conditions: fluorescence quenching at 347 nm, excitation 295 nm
T1 construct: purchased Quidel Corporation (San Diego, Calif.)
Text: FIGS. 3A and 3B are graphs which show the result of a titration of Factor H with BSP.
The salient structural features of Factor H include 20 short consensus repeats (SCRs) that contain four cysteine residues forming two disulfide bonds per repeat. In addition, each SCR contains one conserved tryptophan residue per repeat and Factor H is known to interact with several sialic acid-containing proteins. Therefore, binding interactions between members of the SIBLINGS family of proteins and Factor H can be studied by steady state fluorescence.
Steady state fluorescence studies were accomplished by titrating purified human complement Factor H with rBSP, rOPN, and rDMP1 followed by excitation at 295 nm and monitoring emission between 300 and 450 nm. The emission profile of Factor H alone yields a peak at 347 nm. The addition of rBSP, rOPN, or rDMP1 in nm increments causes a relative fluorescent intensity quenching. Conversion of the fluorescent intensity titration into a binding curve by determining the fraction of binding sites occupied as the fractional change in fluorescence quenching at 347 nm yields a saturable binding curve. […] Given that normal serum concentration of Factor H is ^˜0.5 mg/mL it is probable that virtually all BSP, OPN, and DMP1 in serum will be complexed with Factor H.

[3] = system: MCF-7 breast cancer cells; experiment: Alternate complement pathway cell lysis assay with guinea pig serum, MCF-7; format: cell-based, human; conditions: MCF-7, 10 μg/mL, guinea pig serum 1:5, trypan blue and MTT
Description: (§1) Human cancer cell lines, MCF-7 (A) and U-266 (B) cells were rinsed three time with GVB-MgEGTA buffer and subsequently treated exactly as in the MEL cell complement-mediated cell lysis assay described above except complement active guinea pig serum (GPS) was substituted for human serum. Three different dilutions of GPS were assayed. For cultures pretreated with 10 μg/mL BSP or OPN, the dilution of GPS used was 1:5. Cell viability was determined by both trypan blue exclusion (solid bar) and MTT (open bar) assay. The bars represent the mean values of triplicate samples and the error bars are the standard deviation values.
(§2) Murine erytliroleukemia (MEL) cells (a gift of Dr. Marilyn Farquhar, Univ. CA San Diego.) grown in DMEM containing 10% fetal bovine serum and 4 mM glutamine were rinsed three times with gelatin veronal buffer with Mg2^+ and EGTA (GVB-MgEGTA, Sigma, St. Louis, Mo.). Cells were resuspended in GVB-MgEGTA at a density of 5×10^6 cells/mL and incubated at 37° C. with different concentrations of normal human serum diluted in GVB-MgEGTA. […] Cell viability was determined spectrophotometrically by absorbance at 560 nm. […] Normal human serum collected for good complement activity was then added at a dilution of 1:10 and the cells returned to 37° C. for 2 hours and cell viability was determined by trypan blue-exclusion and MTT assays. […]

[4] = system: U-266 myeloma cells; experiment: Alternate complement pathway cell lysis assay with guinea pig serum, U-266; format: cell-based, human; conditions: U-266, 10 μg/mL, guinea pig serum 1:5, trypan blue and MTT
Description: as §1, §2

T1 sequence (P08603 19-1231): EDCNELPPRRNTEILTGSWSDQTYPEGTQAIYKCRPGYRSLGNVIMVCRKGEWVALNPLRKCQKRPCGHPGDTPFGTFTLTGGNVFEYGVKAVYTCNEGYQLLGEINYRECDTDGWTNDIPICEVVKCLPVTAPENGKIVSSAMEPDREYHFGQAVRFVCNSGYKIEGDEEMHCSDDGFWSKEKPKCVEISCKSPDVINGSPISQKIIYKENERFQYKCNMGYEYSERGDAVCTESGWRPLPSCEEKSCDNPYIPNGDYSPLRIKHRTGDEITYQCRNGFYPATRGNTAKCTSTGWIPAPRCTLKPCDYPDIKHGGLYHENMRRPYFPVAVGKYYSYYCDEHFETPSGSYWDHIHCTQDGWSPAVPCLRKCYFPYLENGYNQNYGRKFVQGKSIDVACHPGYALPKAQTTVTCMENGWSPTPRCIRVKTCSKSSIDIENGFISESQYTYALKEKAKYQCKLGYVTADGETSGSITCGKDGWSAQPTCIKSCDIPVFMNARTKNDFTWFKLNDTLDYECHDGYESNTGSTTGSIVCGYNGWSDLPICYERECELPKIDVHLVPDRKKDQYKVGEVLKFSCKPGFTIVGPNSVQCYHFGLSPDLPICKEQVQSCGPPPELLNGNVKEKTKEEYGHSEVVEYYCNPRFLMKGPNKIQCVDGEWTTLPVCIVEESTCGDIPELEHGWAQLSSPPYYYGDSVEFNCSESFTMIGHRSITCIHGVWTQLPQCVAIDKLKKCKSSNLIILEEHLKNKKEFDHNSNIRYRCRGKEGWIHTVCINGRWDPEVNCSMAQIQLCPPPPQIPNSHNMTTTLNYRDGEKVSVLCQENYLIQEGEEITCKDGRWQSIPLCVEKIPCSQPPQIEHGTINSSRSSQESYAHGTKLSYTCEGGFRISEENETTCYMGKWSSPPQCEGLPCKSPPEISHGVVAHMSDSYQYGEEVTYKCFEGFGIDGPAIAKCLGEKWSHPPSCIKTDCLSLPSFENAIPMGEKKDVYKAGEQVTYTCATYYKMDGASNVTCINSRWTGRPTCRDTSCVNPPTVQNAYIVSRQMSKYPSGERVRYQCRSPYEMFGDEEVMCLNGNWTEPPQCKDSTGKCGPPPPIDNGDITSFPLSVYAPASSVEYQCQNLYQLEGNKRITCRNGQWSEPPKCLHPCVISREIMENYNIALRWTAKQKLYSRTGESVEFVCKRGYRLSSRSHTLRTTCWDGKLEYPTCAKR

rBSP-Factor H: pre-formed complex of rBSP and Factor H
protection of MEL cells from complement-mediated lysis (cell viability) [1]: abolished the protection

rOPN-Factor H: pre-formed complex of rOPN and Factor H
protection of MEL cells from complement-mediated lysis (cell viability) [1]: abolished the protection

GRGDS: synthetic peptide used to compete with SIBLINGS proteins for integrin type binding (Calbiochem-NovaBiochem) [reference compound]
effect of pretreatment on protective effect of rBSP ([1]; MEL cells, GRGDS 400 μM or αVβ3 antibody 1:4000 followed by rBSP 10 μg/mL, MTT): negated the protective effect
effect of pretreatment on protective effect of rOPN ([1]; MEL cells, MTT): reduced cell survival
effect of preincubation on DMP1 protection ([1]; cells preincubated before DMP1): diminished but did not abolish

hyaluronan [reference compound]
effect of pretreatment on protective effect of rOPN ([1]; MEL cells, MTT): reduced the protective effect

OPN: osteopontin, SIBLINGS family member; recombinant from adenoviral construct
binding constant with Factor H [2]: in the nM range
dose relation of protection of MEL cells from alternate complement pathway-mediated lysis [1]: dose related responses
protection of MEL cells from complement-mediated lysis (cell viability) [1]: protect
protection of MEL cells from complement-mediated lysis (cell viability) ([1]; listed as recombinant OPN): conferred protection
survival and protection from complement-mediated cell lysis [3]: enhanced survival and protection
survival and protection from complement-mediated cell lysis [4]: enhanced survival and protection
